Test results as given in article PMC11464467 (Journal of Advanced Research, 2023).

Experiments:
[1] = tested on: MPTP-induced mice PD model; assay: Footprint test in MPTP-induced mice PD model; assay type: in vivo; conditions: selegiline 10 mg/kg orally twice daily 14 days; not statistically significant
striatal DA = assay: HPLC-ECD striatal DA in MPTP mice; assay type: in vivo; conditions: MPTP-treated mice, selegiline 10 mg/kg

C#CCN(C)[C@H](C)Cc1ccccc1 [selegiline]
Locomotion impairments in footprint test (time to cross corridor, stride length) [1]: attenuated these locomotion impairments
Increase in dopamine levels (striatal DA): 15.35%
